Experimental data reported in paper PMC10610379, “Epidrugs as Promising Tools to Eliminate Plasmodium falciparum Artemisinin-Resistant and Quiescent Parasites” (Pharmaceutics, 2023).
Several values for one entry are separate records, joined by “and”; a condition that tells them apart may be missing. Equal values may be shown once. Read-outs that look alike come from different tables or passages of the source.

Assays:
[1] = system: Plasmodium falciparum F32-ART (artemisinin-resistant strain); assay: Standard chemosensitivity assay (SYBR Green I), F32-ART; assay type: cell-based; settings: for IC50: F32-ART, 48 h incubation, SYBR Green I, mean ± SEM of 3 experiments (* mean of 2), read-out: Antiplasmodial Activity: IC50, F32-ART; for Selectivity Index CC50/IC50: ratio cytotoxicity (mammalian cell type of the CC50)/antiplasmodial activity on F32-ART
Protocol: (§1) They differ by eight mutations in seven genes (PF3D7_0110400, PF3D7_1343700, PF3D7_0213400, PF3D7_1115700, PF3D7_1302100, PF3D7_1459600, PF3D7_1464500) among them the M476I mutation on the kelch13 gene. F32-ART and F32-TEM strains have RSA^0–3 h values up to 12% and less than 0.1%, respectively. […] Both strains were cultured, in the same conditions, according to the Trager and Jensen protocol with modifications. Briefly, parasites were cultivated in RPMI-1640 medium (Biowest) at 2% hematocrit in human red blood cells and 5% human serum (EFS, French Blood Bank) under 5% CO2 in a humid atmosphere at 37 °C.
(§2) The antimalarial activities of the compounds were evaluated on both strains. […] Antimalarial activities were determined with the SYBR Green I method. Each drug concentration was tested in triplicate. The parasites were incubated with the drugs for 48 h. Plates were read on a BioTek FLX800 Microplate Fluorescence Reader (Bio-Tek instruments, Winooski, VT, USA) (λexcitation = 485 nm, λemission = 528 nm). Control parasite culture (i.e., RPMI with 0.5% DMSO) was referred to as 100% growth. IC50 and IC90 values were determined using GraphPad Prism version 7.05 (GraphPad Software, San Diego, CA, USA). Results were the mean of 3 independent experiments. When it is relevant, statistical significance between results obtained with both parasite strains was determined by a Mann–Whitney test using GraphPad Prism version 7.05.

[2] = system: Plasmodium falciparum F32-TEM (artemisinin-sensitive twin line); assay: Standard chemosensitivity assay (SYBR Green I), F32-TEM; assay type: cell-based; settings: Plasmodium falciparum; F32-TEM, 48 h incubation, SYBR Green I; mean ± SEM of 3 experiments (* mean of 2); read-out: Antiplasmodial Activity: IC50, F32-TEM
Protocol: as §1, §2

NFF = settings: cited from earlier work
[3] = system: ART-resistant parasites F32-ART at the quiescent stage; assay: Quiescent-stage Survival Assay (QSA), 48-h exposure; assay type: cell-based, Plasmodium falciparum
Protocol: The sensitivity of the ART-resistant parasites F32-ART at the quiescent stage towards the different molecules was determined using the QSA (Quiescent-stage Survival Assay), as previously described.
Epidrugs were tested at their IC90 values. In the present study, quiescence was induced using 3 µM of ART or 700 nM of DHA [28]. Thus, D-sorbitol synchronized ring-stage parasites at 3% parasitemia and 2% hematocrit (5 mL of culture per well in 6-well plates) were first exposed to 6 h of ART or DHA to induce quiescence and then to 48 h of the combination “ART or DHA + compound to be tested”. The combinations “ART 6 h/ART 48 h” or “DHA 6 h/DHA 48 h” were used as controls. The compounds were evaluated, in parallel, on proliferating parasites, i.e., without any pre-treatment. After drug exposure, parasite cultures were washed with 40 mL of RPMI-1640 medium and cultured in drug-free conditions supplemented with 10% human serum in new wells. The parasitemia for each condition was then microscopically monitored every 2 days. Culture media were renewed twice a week and 25 µL of fresh red blood cells were added once a week. Obtained data were used to perform Kaplan–Meier survival analyses considering censored data. The outcome was defined as the day when parasite cultures reached the initial parasitemia (3%) and data were considered as censored if no parasite recrudescence was observed during the 30-day experiment timeframe. When relevant, statistical significance between results obtained for the conditions “ART/ART” and “ART/ART + compound to be tested” or “DHA/DHA” and “DHA/DHA + compound to be tested” was determined by a Log Rank (Mantel Cox) test using GraphPad Prism version 7.05. For the best compounds targeting histones, in order to compare western blots data, modified QSAs were carried out by comparing “DHA 6 h/DHA 24 h” versus “DHA 6 h/DHA + compound to be tested 24 h”.

[4] = system: ART-resistant parasites F32-ART at the quiescent stage; assay: Modified QSA, 24-h exposure; assay type: cell-based, Plasmodium falciparum; settings: DHA 700 nM, compound at its IC90, 24-h exposure
Protocol: Epidrugs were tested at their IC90 values. In the present study, quiescence was induced using 3 µM of ART or 700 nM of DHA [28]. Thus, D-sorbitol synchronized ring-stage parasites at 3% parasitemia and 2% hematocrit (5 mL of culture per well in 6-well plates) were first exposed to 6 h of ART or DHA to induce quiescence and then to 48 h of the combination “ART or DHA + compound to be tested”. The combinations “ART 6 h/ART 48 h” or “DHA 6 h/DHA 48 h” were used as controls. The compounds were evaluated, in parallel, on proliferating parasites, i.e., without any pre-treatment. […] The parasitemia for each condition was then microscopically monitored every 2 days. […] When relevant, statistical significance between results obtained for the conditions “ART/ART” and “ART/ART + compound to be tested” or “DHA/DHA” and “DHA/DHA + compound to be tested” was determined by a Log Rank (Mantel Cox) test using GraphPad Prism version 7.05. […]
To collect enough material for immunoblotting, we performed the analysis after a 24-h exposure of DHA-treated parasites to the epidrug and in parallel evaluated the activity of the three epidrugs in a modified QSA, in which quiescent parasites were exposed to the drug to be tested for 24 instead of 48 h, as in our previous experiments (Figure 2).

H3K4me1 = assay: Immunoblotting, histone mark abundance in F32-ART parasites; assay type: cell-based, Plasmodium falciparum; settings: 270 nM
Protocol: (§3) Abundance of methylated and acetylated histone was determined in parasite cultures in different conditions: “not-treated”, “DHA 24 h”, “DHA 6 h/DHA 24 h” and “DHA 6 h/DHA + compound to be tested 24 h”. At the end of the treatments, parasite cultures were washed in RPMI-1640 and then twice in PBS 1× before red blood cell lysis with 0.075% saponin (Sigma-Aldrich) in PBS. Parasite ghosts were washed 3 times in PBS before incubating the ghosts with E1A lysis buffer (50 mM Hepes pH 7.5; 250 mM NaCl; 5 mM EDTA; 0.1% Triton X-100, 1 mM DTT, 0.2 mM PMSF supplemented with complete Mini EDTA-free protease inhibitor cocktail (Roche®, Basel, Switzerland)) for 15 min. Ghosts were then sonicated for 3 × 15s ON/OFF cycles to shear parasite membranes. Debris were pelleted by centrifuging for 15 min at 13,800× g and 4 °C, and supernatants (containing parasitic proteins) were then collected. Protein concentrations were determined using BCA assay (Bio-Rad, Hercules, CA, USA) according to the manufacturer’s instructions. For each sample, 10 µg of proteins were mixed with 4× sample buffer (10 mL 50% Glycerol, 5 mL 0.5 M Tris HCl pH 6.8, 4 mL 20% SDS, 0.02% Bromophenol blue for a total solution volume of 20 mL) and 100 mM DTT and then separated on 15% SDS-PAGE gels in Laemmli running buffer. Gels were then wet-transferred O/N at 20 V onto PVDF membranes. Membranes were blocked in TBST for 1 h at room temperature. Bottom parts were then probed with histone antibodies while upper parts were probed with PFALDOLASE antibody (Abcam, ab38905, Cambridge, UK) at 1:20,000 dilution. The following primary antibodies were used: anti-H3K4me1 (Abcam, ab8895); anti-H3K4me2 (Abcam, ab35356); anti-H3K9me2 (Abcam, ab1220); anti-H3K9me3 (Millipore, 07-442, Burlington, MA, USA); anti-tetra-acetyl H4 (Millipore, 06-866); anti-H4K8Ac (Millipore, 07-328); anti-H4K20me3 (Abcam, ab9053); anti-H3K4me3 (Diagenode) and anti-H3K9Ac (Millipore, 07-352) at 1:10,000. The following secondary antibodies were used: anti-rabbit IgG-Peroxidase produced in goat (Sigma-Aldrich) or anti-mouse IgG-Peroxidase (Sigma-Aldrich); at 1:20,000 dilutions. Blots were developed using ECL Prime Western Blotting (GE Healthcare, Chicago, IL, USA) and read on a Chemidoc touch imaging software. Densitometry analysis was performed by using ImageLab software from Bio-Rad. To determine if variations in histone abundances were statistically significant, immunoblotting experiments were performed on 3 biological replicates and each run was performed twice.

H3K4me2 = assay: as above; assay type: cell-based, Plasmodium falciparum; settings: 270 nM
Protocol: as §3

H3K4me3 = assay: as above; assay type: cell-based, Plasmodium falciparum; settings: 270 nM
Protocol: as §3

H4K20me3 = assay: as above; assay type: cell-based, Plasmodium falciparum; settings: 270 nM
Protocol: as §3

HFF = settings: read-out: Cytotoxicity: CC50 (HFF), data from literature ref 48; cited from earlier work
[5] = 24 h, F32-ART ring stage proliferating, 3 replicates (Fig 3C)
[6] = DHA 6 h/DHA + TM2-115 24 h, F32-ART DHA-treated parasites, 3 replicates (Fig 3G)

Row | Compound | IC50 ([1]; Plasmodium falciparum) | Selectivity Index CC50/IC50 [1] | IC50 [2] | CC50 (NFF; read-out: Cytotoxicity: CC50 (NFF), data from literature ref 40) | IC90 ([1]; Plasmodium falciparum, F32, concentration used in QSA and immunoblotting) | Delay in parasite recrudescence time (difference between median recrudescence times), ART/ART + compound vs ART/ART ([3]; quiescence induced with ART 3 µM 6 h, then 48 h ART + compound at its IC90) | Delay in recrudescence time, DHA/DHA + compound vs DHA/DHA ([3]; quiescence induced with DHA 700 nM 6 h, then 48 h DHA + compound at its IC90) | Recrudescence in modified QSA, DHA 6 h/DHA + compound 24 h vs DHA 6 h/DHA 24 h [4] | Fold change of H3K4me1 abundance, TM2-115 vs DMSO (H3K4me1; [5]) | Fold change of H3K4me1 abundance, TM2-115, quiescent stage (H3K4me1; [6]) | Fold change of H3K4me2 abundance, TM2-115 vs DMSO (H3K4me2; [5]) | Fold change of H3K4me2 abundance, TM2-115, quiescent stage (H3K4me2; [6]) | Fold change of H3K4me3 abundance, TM2-115 vs DMSO (H3K4me3; [5]) | Fold change of H3K4me3 abundance, TM2-115, quiescent stage (H3K4me3; [6]) | Fold change of H4K20me3 abundance, TM2-115 vs DMSO (H4K20me3; [5]) | Fold change of H4K20me3 abundance, TM2-115, quiescent stage (H4K20me3; [6]) | CC50 (HFF) | CC50 (NFF; read-out: Cytotoxicity: CC50 (NFF), data from literature ref 43)
1 | CC(/C=C/C(=O)NO)=C\[C@@H](C)C(=O)c1ccc(N(C)C)cc1 [Trichostatin A] | 29 ± 12 nM | 7 | 30 ± 3 nM | 200 nM |  |  |  |  |  |  |  |  |  |  |  |  |  | 
2 | COc1cc2c(NC3CCN(C)CC3)nc(N3CCCN(C)CC3)nc2cc1OCc1ccccc1 [TM2-115] | 128 ± 30 nM | 45 | 104 ± 32 nM |  | 270 nM | 9.5 days | ≥ 6 days | clearly impaired quiescent parasite survival | 1.37 and 0.47 and 2.10 | did not induce a quantifiable change and 0.51 and 1.07 and 0.76 | 1.31 and 1.11 and 0.85 | did not induce a quantifiable change and 1.00 and 0.95 and 0.47 | 1.39 and 1.69 and 1.12 | did not induce a quantifiable change and 0.81 and 0.67 and 1.16 | inhibited H4K20 methylation and 0.82 and 0.71 and 0.76 | did not induce a quantifiable change and 1.10 and 1.20 and 0.97 | 5700 nM | 
3 | O=C(CCCCCCC(=O)Nc1ccccc1)NO [SAHA] |  |  |  |  |  |  |  |  |  |  |  |  |  |  |  |  |  | 5500 nM
